Broadly, the IC20 is the concentration at which the effect reaches the 20% level. Read a high IC20 as a need for much substance.

Structures are written as SMILES.

The values that follow come from patent publication US20220340597A1, “HEXAHYDRO-1H-PYRAZINO[1,2-A]PYRAZINE COMPOUNDS FOR THE TREATMENT OF AUTOIMMUNE DISEASE” (Hoffmann-La Roche Inc., priority 2019, published 2022).

One data set addresses T1, human TLR9 (Homo sapiens, UniProt Q9NR96).
T1 construct: host or cells: HEK293 (HEK-Blue hTLR9)
T1 sequence (Q9NR96 26-1032): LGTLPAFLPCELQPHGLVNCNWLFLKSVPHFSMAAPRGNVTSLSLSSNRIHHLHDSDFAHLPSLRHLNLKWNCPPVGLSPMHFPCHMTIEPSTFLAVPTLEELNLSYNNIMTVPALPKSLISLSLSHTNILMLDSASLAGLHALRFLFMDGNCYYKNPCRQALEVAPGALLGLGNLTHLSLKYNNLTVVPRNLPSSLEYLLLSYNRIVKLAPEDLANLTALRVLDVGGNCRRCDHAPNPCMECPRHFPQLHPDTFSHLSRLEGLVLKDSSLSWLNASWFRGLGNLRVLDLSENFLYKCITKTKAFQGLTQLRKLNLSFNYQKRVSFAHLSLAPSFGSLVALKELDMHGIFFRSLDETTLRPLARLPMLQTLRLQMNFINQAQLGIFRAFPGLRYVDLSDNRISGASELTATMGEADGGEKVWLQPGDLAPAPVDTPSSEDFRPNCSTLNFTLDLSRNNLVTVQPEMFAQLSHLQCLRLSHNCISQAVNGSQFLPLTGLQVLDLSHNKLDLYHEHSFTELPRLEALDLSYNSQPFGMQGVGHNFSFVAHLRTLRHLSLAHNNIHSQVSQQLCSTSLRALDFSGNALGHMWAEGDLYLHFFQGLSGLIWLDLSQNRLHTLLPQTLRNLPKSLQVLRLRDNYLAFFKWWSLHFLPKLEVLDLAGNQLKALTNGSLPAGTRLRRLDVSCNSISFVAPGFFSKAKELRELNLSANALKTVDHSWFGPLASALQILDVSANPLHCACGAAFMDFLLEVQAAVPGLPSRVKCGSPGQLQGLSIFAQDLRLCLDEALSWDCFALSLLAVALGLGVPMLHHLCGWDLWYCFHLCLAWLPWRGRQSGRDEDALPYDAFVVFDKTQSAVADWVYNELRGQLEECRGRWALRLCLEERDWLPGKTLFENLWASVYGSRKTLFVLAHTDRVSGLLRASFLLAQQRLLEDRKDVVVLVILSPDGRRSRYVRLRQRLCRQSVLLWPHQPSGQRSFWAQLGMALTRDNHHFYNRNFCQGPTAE
The data set can be described thus: HEK293-Blue-hTLR-9 cells assay. Format: cell-based. Particulars: HEK293-Blue-hTLR9 cells, ODN2006 stimulation, 20 hrs, SEAP reporter; read-out: HEK/hTLR9 IC50.

The next data set deals with T2, hERG channel (Homo sapiens, UniProt Q12809).
T2 construct: expressed in transfected cells; host or cells: CHO (Chinese hamster ovary), CHOhERG
The experiment in a line: hERG channel inhibition assay (patch-clamp, CHOhERG cells). It is filed as cell-based. Particulars: for IC50 / IC20: CHOhERG cells, whole-cell patch-clamp; for IC20: human, CHO cells stably expressing hERG (CHOhERG); for hERG IC20/TLR7 IC50 / hERG IC20/TLR8 IC50 / hERG IC20/TLR9 IC50: safety ratio. The gist of the method:
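Whole-cell voltage-clamp recordings of IKhERG in CHO cells stably expressing human hERG, stimulated at 0.1 Hz. Compound applied at rising concentrations, each held 3–10 min to reach steady state; current amplitude and kinetics compared with pre-drug control set as 100%.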

T2 sequence (Q12809 whole entry): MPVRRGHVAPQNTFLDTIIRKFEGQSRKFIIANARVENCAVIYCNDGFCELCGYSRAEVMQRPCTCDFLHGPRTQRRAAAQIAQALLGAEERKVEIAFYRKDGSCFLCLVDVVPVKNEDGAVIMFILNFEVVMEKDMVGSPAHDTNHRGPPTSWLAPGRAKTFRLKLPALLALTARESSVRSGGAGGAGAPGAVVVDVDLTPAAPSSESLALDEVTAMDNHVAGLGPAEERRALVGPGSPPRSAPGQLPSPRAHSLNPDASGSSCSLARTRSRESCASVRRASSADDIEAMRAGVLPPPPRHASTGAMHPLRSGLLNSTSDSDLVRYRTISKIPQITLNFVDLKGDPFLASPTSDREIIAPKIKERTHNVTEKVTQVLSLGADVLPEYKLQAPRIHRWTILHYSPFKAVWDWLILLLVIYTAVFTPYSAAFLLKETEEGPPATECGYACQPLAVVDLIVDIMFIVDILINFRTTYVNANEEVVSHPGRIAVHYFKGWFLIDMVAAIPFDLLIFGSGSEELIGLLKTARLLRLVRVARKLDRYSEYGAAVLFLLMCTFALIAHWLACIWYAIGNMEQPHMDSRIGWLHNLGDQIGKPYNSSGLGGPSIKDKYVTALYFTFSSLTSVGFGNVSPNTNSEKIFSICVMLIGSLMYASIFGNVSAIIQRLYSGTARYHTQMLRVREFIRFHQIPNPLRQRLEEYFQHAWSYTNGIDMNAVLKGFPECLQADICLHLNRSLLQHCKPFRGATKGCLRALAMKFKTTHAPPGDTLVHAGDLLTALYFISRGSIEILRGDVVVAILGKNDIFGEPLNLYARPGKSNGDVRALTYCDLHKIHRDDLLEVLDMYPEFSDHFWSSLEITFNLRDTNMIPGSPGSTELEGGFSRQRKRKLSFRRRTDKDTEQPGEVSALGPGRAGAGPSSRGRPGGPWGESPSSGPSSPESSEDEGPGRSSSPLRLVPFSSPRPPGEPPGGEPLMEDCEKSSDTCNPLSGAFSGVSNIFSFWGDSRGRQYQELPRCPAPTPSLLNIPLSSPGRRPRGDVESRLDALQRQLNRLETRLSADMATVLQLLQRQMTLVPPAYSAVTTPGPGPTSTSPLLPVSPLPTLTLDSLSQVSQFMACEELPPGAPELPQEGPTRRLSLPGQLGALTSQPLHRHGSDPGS

In the case of `[2H]c1ccc2c(N3C[C@@H]4CN(Cc5ccc(N6CC(C)(N)C6)nc5C)CCN4[C@H](C)C3)ccc(C#N)c2n1` [Example 79, 5-[(4R,9aS)-8-[[6-(3-amino-3-methyl-azetidin-1-yl)-2-methyl-3-pyridyl]methyl]-4-methyl-3,4,6,7,9,9a-hexahydro-1H-pyrazino[1,2-a]pyrazin-2-yl]-2-deuterio-quinoline-8-carbonitrile], at human TLR9, the IC50 stood at 0.046 µM. In addition, at hERG channel, the IC50 was above 20 µM, the IC20 is above 10 µM, the “hERG IC20/TLR7 IC50” value is recorded as above 526 and the “hERG IC20/TLR8 IC50” value is above 1666. On hERG channel, the “hERG IC20/TLR9 IC50” value is recorded as above 217.
On to `[2H]c1ccc2c(N3C[C@@H]4CN(c5ccc(CCN6C[C@H](OC)[C@@H](N)C6)cn5)CCN4[C@H](C)C3)ccc(C#N)c2n1` [Example 109, 5-[(4R,9aR)-8-[5-[2-[(3S,4S)-3-amino-4-methoxy-pyrrolidin-1-yl]ethyl]-2-pyridyl]-4-methyl-3,4,6,7,9,9a-hexahydro-1H-pyrazino[1,2-a]pyrazin-2-yl]-2-deuterio-quinoline-8-carbonitrile], for which the IC50 at human TLR9 came to 0.111 µM. Moreover, at hERG channel, the IC50 was above 20 µM, the IC20 is above 10 µM, the “hERG IC20/TLR7 IC50” value is reported as above 2000 and the “hERG IC20/TLR8 IC50” value was above 2500. The “hERG IC20/TLR9 IC50” value on hERG channel is above 90.
Consider `[2H]c1ccc2c(N3C[C@@H]4CN(c5ccc(N6CC7CCC(C6)N7)nc5)CCN4[C@@H](C)C3)ccc(C#N)c2n1` [Example 112, 5-[(4S,9aR)-8-[6-(3,8-diazabicyclo[3.2.1]octan-3-yl)-3-pyridyl]-4-methyl-3,4,6,7,9,9a-hexahydro-1H-pyrazino[1,2-a]pyrazin-2-yl]-2-deuterio-quinoline-8-carbonitrile], for which the IC50 at human TLR9 was determined as 0.082 µM. Further, at hERG channel, the IC50 is above 20 µM, the IC20 is above 10 µM, the “hERG IC20/TLR7 IC50” value is above 2500 and the “hERG IC20/TLR8 IC50” value is reported as above 1000. Moreover, at hERG channel, the “hERG IC20/TLR9 IC50” value is above 122.
`CO[C@@H]1CN(c2nccc(N3CCN4[C@@H](C3)CN(c3ccc(C#N)c5ncccc35)C[C@H]4C)n2)C[C@H]1N` [Example 36, 5-[(4R,9aR)-8-[2-[(3R,4R)-3-amino-4-methoxy-pyrrolidin-1-yl]pyrimidin-4-yl]-4-methyl-3,4,6,7,9,9a-hexahydro-1H-pyrazino[1,2-a]pyrazin-2-yl]quinoline-8-carbonitrile]: the IC50 at human TLR9 amounted to 0.068 µM. For the same compound, on hERG channel, the IC50 was above 20 µM, the IC20 turned out to be 5.6 µM, the “hERG IC20/TLR7 IC50” value was 431 and the “hERG IC20/TLR8 IC50” value stood at 373. The “hERG IC20/TLR9 IC50” value at hERG channel is 82.
